Among the data in ChEMBL document CHEMBL4346719, “Discovery of novel acylhydrazone neuraminidase inhibitors” (Eur J Med Chem, 2019) are IC50 values, retold here.

System in one test: not listed separately
Description: Inhibition of influenza virus A/WSN/1933 (H1N1) neuraminidase using MUNANA as substrate preincubated for 10 mins followed by substrate addition and measured for 15 mins by fluorescence assay. Also on record: species or system Influenza A virus ([…]).
The IC50 is the concentration needed to halve the response being measured. Read a high IC50 as lower potency. In turn, `CC(=O)N[C@H]1[C@H]([C@H](O)[C@H](O)CO)OC(P(=O)(O)O)=C[C@@H]1NC(=N)N` displayed an IC50 of 0.0006 µM.

The target of another test is Neuraminidase (Influenza A virus, UniProt B4URF0).
Sequence of Neuraminidase (B4URF0 whole entry): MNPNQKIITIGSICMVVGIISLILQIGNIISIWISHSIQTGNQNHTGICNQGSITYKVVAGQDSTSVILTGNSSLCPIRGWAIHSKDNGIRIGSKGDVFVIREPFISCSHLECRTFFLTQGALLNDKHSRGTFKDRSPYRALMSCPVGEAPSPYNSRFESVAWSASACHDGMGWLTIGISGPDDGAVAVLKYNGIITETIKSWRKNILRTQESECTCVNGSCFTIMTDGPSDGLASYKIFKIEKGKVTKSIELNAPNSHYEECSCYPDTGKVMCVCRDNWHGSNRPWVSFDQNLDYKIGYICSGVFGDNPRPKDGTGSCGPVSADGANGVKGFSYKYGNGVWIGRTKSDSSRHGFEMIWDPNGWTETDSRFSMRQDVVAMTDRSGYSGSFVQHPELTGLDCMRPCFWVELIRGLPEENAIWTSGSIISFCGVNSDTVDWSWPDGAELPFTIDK
Turning to `O=C(NCCCN1CCOCC1)C(=O)N/N=C/c1ccc(O)c([N+](=O)[O-])c1`, inhibition was half-maximal at 4.37 µM (IC50). That is a single-digit micromolar value.

In the case of `COc1ccc(/C=N/NC(=O)C(=O)NCCCN2CCOCC2)cc1OC`, 2.37 µM corresponded to half-maximal inhibition (IC50).

`COc1cc(/C=N/NC(=O)C(=O)NCCCN2CCOCC2)cc(OC)c1O` displayed an IC50 of 3.15 µM.

The compound `COc1cc(/C=N/NC(=O)C(=O)NCCCN2CCOCC2)ccc1O` had an IC50 of 4.67 µM. This IC50 and that of the compound before are within 1.5-fold of each other.

Consider `COc1ccccc1/C=N/NC(=O)C(=O)NCCCN1CCOCC1`, for which the midpoint of inhibition, the IC50, lay at 7.1 µM.

Compound `O=C(NCCCN1CCOCC1)C(=O)N/N=C/c1ccccc1O` came in with an IC50 of 6.48 µM.

Compound `COc1cc(/C=N/NC(=O)C(=O)NCCCN2CCOCC2)cc(OC)c1OC` yielded an IC50 of 2.61 µM.
